Patent publication US10208071B2, “Use of agonists of formyl peptide receptor 2 for treating ocular inflammatory diseases” (Allergan, Inc., priority 2013, dated 2019)
Where two headings read alike, the source gives them in different places.

Target: FPR2 (Homo sapiens (Human), UniProt P25090)
Test: FLIPR Ca+2 response, HEK-Gα16 cells stably expressing the human FPR2 receptor (Table 4)
Assay type: cell-based
Details: for FPR2 (efficacy): efficacy in parentheses
How it was run: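 HEK-Gα16 cells stably expressing human FPR2, loaded with 2 μM Fluo-4 in HBSS/20 mM HEPES for 40 min at 37° C., then washed. Ligands added in HBSS/Hepes and Ca+2 responses recorded on FLIPR in relative fluorescence units.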

Chain of FPR2 (P25090 whole entry): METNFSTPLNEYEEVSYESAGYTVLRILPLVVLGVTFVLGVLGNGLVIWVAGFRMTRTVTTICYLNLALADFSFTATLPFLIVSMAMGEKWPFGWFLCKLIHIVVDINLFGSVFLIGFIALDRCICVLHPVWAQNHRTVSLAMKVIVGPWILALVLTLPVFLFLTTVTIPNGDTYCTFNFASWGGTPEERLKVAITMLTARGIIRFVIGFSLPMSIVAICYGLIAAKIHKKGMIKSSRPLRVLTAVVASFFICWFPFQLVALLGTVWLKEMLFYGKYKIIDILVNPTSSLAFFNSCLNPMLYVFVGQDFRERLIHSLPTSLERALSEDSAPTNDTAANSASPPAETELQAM

Structure (SMILES) | FPR2 (efficacy) | EC50 [nM] | EC50 (unit inferred) [nM]
C[S+]([O-])c1ccc(NC(=O)Nc2ccc3c(c2)C(=O)N(CCc2c[nH]cn2)C(c2ccc(F)cn2)C3)cc1 (centres unmarked) [Compound 24, 1-{3-(5-fluoropyridin-2-yl)-2-[2-(1H-imidazol-4-yl)ethyl]-1-oxo-1,2,3,4-tetrahydroisoquinolin-7-yl}-3-[4-(methylsulfinyl)phenyl]urea] | nM (0.93) |  | 
NC(=O)C1C(C(=O)Nc2ccc(Br)cc2)C2C=CC1C21CC1 (centres unmarked) [Compound 26, N-(4-bromophenyl) spiro[bicyclo[2.2.1]heptane-7,1′-cyclopropane]-5-ene-2,3-dicarboxamide] | nM (0.91) |  | 
O=C(Nc1ccc(Br)cc1)N[C@@H](Cc1ccccc1)C(=O)NCCO [Compound 58, (2S)-2-{[(4-bromophenyl)carbamoyl]amino}-N-(2-hydroxyethyl)-3-phenylpropanamide] | nM (0.86) | 7 | 
CC1(C)C2CCC1C(C(=O)Nc1ccc(I)cc1)C2C(N)=O (centres unmarked) [Compound 35, N-(4-iodophenyl)-7,7-dimethylbicyclo[2.2.1]heptane-2,3-dicarboxamide] | nM (0.81) |  | 
CSc1ccc(NC(=O)Nc2ccc3c(c2)C(=O)N(CCc2c[nH]cn2)C(c2ccc(Cl)o2)C3)cc1 (centres unmarked) [Compound 27, 1-{3-(5-chlorofuran-2-yl)-2-[2-(1H-imidazol-4-yl)ethyl]-1-oxo-1,2,3,4-tetrahydroisoquinolin-7-yl}-3-[4-(methylsulfanyl)phenyl]urea] | nM (0.81) |  | 
CCOP(=O)(CNC(=O)[C@@H](NC(=O)Nc1ccc(Br)cc1)[C@@H](C)CC)OCC [Compound 114, diethyl ({[(2S,3S)-2-{[(4-bromophenyl)carbamoyl]amino}-3-methylpentanoyl]amino}methyl)phosphonate] | nM (1.0) | 2.9 | 
CCC1(C(C)C)NC(=O)N(NC(=O)Nc2ccc(Br)cc2)C1=O (centres unmarked) [Compound 4, 1-(4-bromophenyl)-3-[4-ethyl-2,5-dioxo-4-(propan-2-yl)imidazolidin-1-yl]urea] | (0.90) |  | 
CCC1(C(C)C)NC(=O)N(NC(=O)Nc2ccc(Br)cc2F)C1=O (centres unmarked) [Compound 61, 1-(4-bromo-2-fluorophenyl)-3-[4-2,5-dioxo-4-(propan-2-yl)imidazolidin-1-yl]urea] | nM (0.97) | 9.2 | 
CCC1(CC)NC(=O)N(NC(=O)Nc2ccc(Br)cc2F)C1=O [Compound 50, 1-(4-bromo-2-fluorophenyl)-3-(4,4-diethyl-2,5-dioxoimidazolidin-1-yl)urea] | nM (1.0) | 15.7 | 
CC(C)C[C@H](NC(=O)Nc1ccc(Br)cc1)C(=O)NCC(=O)O [Compound 8, {[(2S)-2-{[(4-bromophenyl)carbamoyl]amino}-4-methylpentanoyl]amino}acetic acid] | (0.78) |  | 
CCOP(=O)(O)CNC(=O)[C@H](CC(C)C)NC(=O)Nc1ccc(C(F)(F)F)cc1 [Compound 135, ethyl hydrogen ({[(2S)-4-methyl-2-({[4-(trifluoromethyl)phenyl]carbamoyl}amino)pentanoyl]amino}methyl)phosphonate] | nM (0.91) | 1.9 | 
CSCC[C@H](NC(=O)Nc1ccc(Br)cc1)C(=O)NCC(=O)O [Compound 144, {[(2S)-2-{[(4-bromophenyl)carbamoyl]amino}-4-(methylsulfanyl)butanoyl]amino} acetic acid] | nM (0.91) | 6.3 | 
CC(C)C[C@H](NC(=O)Nc1ccc(Br)cc1)C(=O)N(C)CC(=O)O [Compound 155, {[(2S)-2-{[(4-bromophenyl)carbamoyl]amino}-4-methylpentanoyl](methyl)amino} acetic acid] | nM (1.0) | 1 | 
CC(C)C1(CO)NC(=O)N(NC(=O)Nc2ccc(Br)cc2)C1=O (centres unmarked) [Compound 132, 1-(4-bromophenyl)-3-[4-(hydroxymethyl)-2,5-dioxo-4-(propan-2-yl)imidazolidin-1-yl]urea] | nM (0.86) | 16.2 | 
CC(C)NC(=O)C1C(C(=O)Nc2ccc(Br)cc2)C2CCC1C21CC1 (centres unmarked) [Compound 48, N-(4-bromophenyl)-N′-(propan-2-yl)spiro[bicyclo[2.2.1]heptane-7,1′-cyclopropane]-2,3-dicarboxamide] | nM (1.0) | 6.7 | 
CC(=O)CNC(=O)[C@H](CC(C)C)NC(=O)Nc1ccc(Br)cc1F [Compound 85, (2S)-2-{[(4-bromo-2-fluorophenyl)carbamoyl]amino}-4-methyl-N-(2-oxopropyl)pentanamide] | nM (0.99) |  | 
CCC1(C(C)C)NC(=O)N(NC(=O)Nc2ccc(Br)cc2)C1=O (single isomer, unassigned; (+)) [Compound 66, (+)1-(4-bromophenyl)-3-[4-ethyl-2,5-dioxo-4-(propan-2-yl)imidazolidin-1-yl]urea] | nM (0.96) |  | 
CCOP(=O)(CNC(=O)[C@H](CC(C)C)NC(=O)Nc1ccc(C(F)(F)F)cc1)OCC [Compound 134, diethyl ({[(2S)-4-methyl-2-({[4-(trifluoromethyl)phenyl]carbamoyl}amino)pentanoyl]amino}methyl)phosphonate] | nM (0.97) | 5.5 | 
CC1(CCc2ccccc2O)NC(=O)N(NC(=O)Nc2ccc(Br)cc2)C1=O (centres unmarked) [Compound 109, 1-(4-bromophenyl)-3-{4-[2-(2-hydroxyphenyl)ethyl]-4-methyl-2,5-dioxoimidazolidin-1-yl}urea] | nM (0.93) |  | 
CC(C)C[C@H](NC(=O)Nc1ccc(Br)cc1)C(=O)NCP(=O)(OC(C)C)OC(C)C [Compound 131, dipropan-2-yl ({[(2S)-2-{[(4-bromophenyl)carbamoyl]amino}-4-methylpentanoyl]amino}methyl)phosphonate] | nM (1.0) |  | 
CCC1(C(C)C)NC(=O)N(NC(=O)Nc2ccc(Br)cc2)C1=O (single isomer, unassigned; (-)) [Compound 67, (−)1-(4-bromophenyl)-3-[4-ethyl-2,5-dioxo-4-(propan-2-yl)imidazolidin-1-yl]urea] | nM (1.0) |  | 
CC(C)C[C@H](NC(=O)Nc1ccc(Br)cc1)C(=O)NCC(=O)N(C)C [Compound 120, (2S)-2-{[(4-bromophenyl)carbamoyl]amino}-N-[2-(dimethylamino)-2-oxoethyl]-4-methylpentanamide] | nM (0.99) | 1.7 | 
CCC[C@H](NC(=O)Nc1ccc(Br)cc1)C(=O)NCC(=O)O [Compound 2, {[(2S)-2-{[(4-bromophenyl)carbamoyl]amino}pentanoyl]amino}acetic acid] | (0.91) |  | 2
